The nature of experiment [1]: Ratio of uptake of [125I]- (S)-N-(1-Ethyl-pyrrolidin-2-ylmethyl)-5-iodo-2-methoxy-benzamide in striatum:frontal cortex; 4.7:1. Type of experiment: functional.
In experiment [2] the test system is Rattus norvegicus. Description: Regional uptake of [125I]- (S)-N-(1-Ethyl-pyrrolidin-2-ylmethyl)-5-iodo-2-methoxy-benzamide in rat frontal cortex 60 min after intravenous administration. It is filed as functional, organism-based.
The nature of experiment [3]: Ratio of uptake of [125I]- (S)-N-(1-Ethyl-pyrrolidin-2-ylmethyl)-5-iodo-2-methoxy-benzamide in striatum:cerebellum; 7.2:1. Type of experiment: functional.
The target of experiment [4] is D(2) dopamine receptor (Rattus norvegicus, UniProt P61169). Description: Inhibition of 0.1 nM of [125I]- (S)-N-(1-Ethyl-pyrrolidin-2-ylmethyl)-5-iodo-2-methoxy-benzamide binding in striatal homogenates of rat brain. It is filed as tissue-based.
Chain of D(2) dopamine receptor (P61169 whole entry): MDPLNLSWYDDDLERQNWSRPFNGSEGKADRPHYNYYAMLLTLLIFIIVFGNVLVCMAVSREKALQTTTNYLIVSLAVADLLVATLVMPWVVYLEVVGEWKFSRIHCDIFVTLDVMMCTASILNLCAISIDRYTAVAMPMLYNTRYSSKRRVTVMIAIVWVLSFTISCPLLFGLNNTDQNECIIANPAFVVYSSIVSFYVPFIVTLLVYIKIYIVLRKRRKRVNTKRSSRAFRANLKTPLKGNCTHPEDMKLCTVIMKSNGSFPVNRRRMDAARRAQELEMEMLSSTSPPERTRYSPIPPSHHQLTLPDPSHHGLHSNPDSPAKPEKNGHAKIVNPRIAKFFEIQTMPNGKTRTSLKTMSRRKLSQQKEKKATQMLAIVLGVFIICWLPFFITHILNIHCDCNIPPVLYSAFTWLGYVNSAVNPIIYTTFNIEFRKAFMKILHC
Experiment [5] concerns Rattus norvegicus. In words: Regional uptake of [125I]- (S)-N-(1-Ethyl-pyrrolidin-2-ylmethyl)-5-iodo-2-methoxy-benzamide in rat cerebellum 60 min after intravenous administration. Type of experiment: functional, organism-based.
For experiment [6], the system named is Rattus norvegicus. Description: Regional uptake of [125I]- (S)-N-(1-Ethyl-pyrrolidin-2-ylmethyl)-5-iodo-2-methoxy-benzamide in rat striatum 60 min after intravenous administration. Type of experiment: functional, organism-based.
Experiment [7] can be described thus: Ratio of uptake of [125I]- (S)-N-(1-Ethyl-pyrrolidin-2-ylmethyl)-5-iodo-2-methoxy-benzamide in striatum:striatum; 1.0:1. It is filed as functional.

For `CCN1CCC[C@@H]1CNC(=O)c1cc(I)ccc1OC`, the Ratio in experiment [1] is 4.7; in experiment [3] it was 7.2; in experiment [7], 1. The results for the Radioactivity in experiment [2], in experiment [5] and in experiment [6] were 11.9 nCi g-1, 7.8 nCi g-1 and 56.2 nCi g-1, respectively. Moreover, the IC50 (commonly the concentration that inhibits the measured activity by half) in experiment [4] was determined as 113 nM.

Take `CCN1CCC[C@H]1CNC(=O)c1cc(I)ccc1OC` [IODOPRIDE]: the IC50 in experiment [4] amounted to 1.5 nM.

Values taken from ChEMBL document CHEMBL1123991 (J Med Chem, 1988).
